According to paper PMC9254699 (Biomaterials science, 2021):
No end group written: not given here.

What was measured:
[1] = deemed target-related; cited from earlier work
off-target kinases = conditions: cited from earlier work
ALK5 (TβRI) = conditions: cited from earlier work
CK1δ = conditions: cited from earlier work
activin receptor ALK7 = conditions: cited from earlier work
activin receptor ALK4 = conditions: cited from earlier work
RIPK2 = conditions: cited from earlier work
p38MAPK = conditions: cited from earlier work
TGF-β1 [2] = target: T1, TGF-β1 (Homo sapiens, UniProt P01137); conditions: cited from earlier work
TGF-β1 [3] = target: T1, TGF-β1; conditions: cited from earlier work; remark: listed apart in the source
TGF-β1 [4] = target: T1, TGF-β1; assay: surface plasmon resonance; format: binding; conditions: for kon: read-out: association rate constant ka; for koff: read-out: dissociation rate constant kd
[5] = system: mouse T-lymphocyte HT-2 cells; assay: HT-2 T-lymphocyte proliferation assay; format: cell-based
[6] = system: human umbilical vein endothelial cells (HUVECs); assay: HUVEC proliferation assay; format: cell-based; conditions: HUVEC (Fig. S5)
[7] = system: mouse T-lymphocyte HT-2 cells; conditions: cited from earlier work

T1 sequence (P01137 279-390 limits assumed, species assumed): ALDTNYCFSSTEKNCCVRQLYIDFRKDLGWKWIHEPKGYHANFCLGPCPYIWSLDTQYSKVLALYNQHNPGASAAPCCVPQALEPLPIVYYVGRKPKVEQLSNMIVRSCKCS

In the case of `Cc1cccc(-c2nn3c(c2-c2ccnc4ccc(C(N)=O)cc24)CCC3)n1` [Galunisertib], the “cardiac toxicity in preclinical development” value [1] is given as “cardiac toxicities identified during preclinical development”, the “activity against off-target kinases” value (off-target kinases) is given as “strong activity against off-target kinases” and the “inhibition of TβRI by galunisertib” value (ALK5 (TβRI)) is given as “small molecule inhibitor of TβRI”.

For `NC(=O)c1ccc(-c2nc(-c3ccc4c(c3)OCO4)c(-c3ccccn3)[nH]2)cc1` [SB-431542], the “activity against CK1δ” value (CK1δ) is given as “activity”, the “activity against ALK7” value (activin receptor ALK7) is given as “activity against activin receptors ALK4 and ALK7” and the “activity against ALK4” value (activin receptor ALK4) is given as “activity against activin receptors ALK4”. For the same molecule, the “activity against RIPK2” value (RIPK2) was “activity”, the “activity against p38MAPK” value (p38MAPK) was “activity” and the “inhibition of ALK5 (TβRI)” value (ALK5 (TβRI)) was “small molecule inhibitor of ALK5 (TβRI)”.

In the case of `CCCCc1nc(Cl)c(CO)n1Cc1ccc(-c2ccccc2-c2nn[nH]n2)cc1` [losartan, reference compound], the “direct binding to TGF-β1 or its receptors” value (from here on “direct binding”) (TGF-β1 [2]) is given as “do not directly bind TGF-β1 or its receptors” and the “activity against TGF-β1, preclinical anti-fibrotic” value (TGF-β1 [3]) is given as “activity against TGF-β1”.

In the case of `Cc1ccc(C(=O)Nc2ccc(S(=O)(=O)O)c3cc(S(=O)(=O)O)cc(S(=O)(=O)O)c23)cc1NC(=O)c1cccc(NC(=O)Nc2cccc(C(=O)Nc3cc(C(=O)Nc4ccc(S(=O)(=O)O)c5cc(S(=O)(=O)O)cc(S(=O)(=O)O)c45)ccc3C)c2)c1` [suramin, reference compound], the “direct binding” value (TGF-β1 [2]) is given as “do not directly bind TGF-β1 or its receptors” and the “activity against TGF-β1, preclinical anti-fibrotic” value (TGF-β1 [3]) is given as “activity against TGF-β1”.

Work on CIAEIDLIPRDRPF [RIPΔ] yielded a kon (TGF-β1 [4]) of 192000 M⁻¹ s⁻¹ and a koff (TGF-β1 [4]) of 0.0199 s⁻¹.

With CIAEIDLIPRDRPFV [RIP] the kon (TGF-β1 [4]) was 140000 M⁻¹ s⁻¹ and the koff (TGF-β1 [4]) was 0.00836 s⁻¹.

In the case of CLIDFRIPADREVPI [Scrambled RIP], the kon (TGF-β1 [4]) is reported as 68500 M⁻¹ s⁻¹ and the koff (TGF-β1 [4]) is reported as 0.0352 s⁻¹.

For CPQLGKFGDVRF [RIIP-1], the “effect on HT-2 proliferation (fluorescence) vs own scrambled control” value ([5]; 10 μM soluble peptide, 0.1 ng/mL TGF-β1 (Fig. 2b)) was “not statistically different between RIIP-1 and its scrambled control”.

In the case of “TGF-β1: most abundant TGF-β isoform in adult tissues and platelets”, the “IC50 of TGF-β1 in the HT-2 proliferation assay” value ([5]; IL-4 dependent proliferation, fluorescence-based cell viability assay) is reported as 0.05 ng/mL, the IC50 ([5]; read-out: IC50 of TGF-β1 in the HT-2 proliferation assay (molar), IL-4 dependent proliferation, fluorescence-based cell viability assay) is reported as 3.9 pM and the “inhibition of IL-4 dependent HT-2 proliferation by TGF-β1” value ([5]; soluble TGF-β1, fluorescence-based cell viability assay (Fig. 2a)) is reported as “inhibited IL-4 dependent proliferation in a dose dependent manner”. The “TGF-β1 concentration of highest inhibition of HUVEC proliferation” value [6] was 41 pg/mL, the “TGF-β1 concentration of highest inhibition of HUVEC proliferation (molar)” value [6] was 3.2 pM and the “TGF-β1 concentration range suppressing HUVEC proliferation” value [6] was 10 to 1000 ng/mL. For the same molecule, the “published IC50 value of TGF-β1 in HT-2 assay” value [7] was 0.04 to 0.2 ng/mL.

In the case of relaxin, the “direct binding” value (TGF-β1 [2]) is listed as “do not directly bind TGF-β1 or its receptors” and the “activity against TGF-β1, preclinical anti-fibrotic” value (TGF-β1 [3]) is listed as “activity against TGF-β1”.
